Assay results from patent publication US20170050957A1, “4-AMINO-6-(HETEROCYCLIC)PICOLINATES AND 6-AMINO-2-(HETEROCYCLIC)PYRIMIDINE-4-CARBOXYLATES AND THEIR USE AS HERBICIDES” (Dow AgroSciences LLC, priority 2013, published 2017).
Read-outs that look alike come from different tables or passages of the source.

Legend:
[1] = test system: Key Grass and Sedge Weeds as well as Grass Crops; experiment: Post-emergent Test II herbicidal activity (Table 16); type: in vivo; conditions: post-emergence, 336 h, 14 days after application; for pest or weed control at 35 g/ha: 35 g ai/ha; for pest or weed control at 70 g/ha: 70 g ai/ha; for pest or weed control at 140 g/ha: 140 g ai/ha
Summary of the method: (§1)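 Plants at first-second true leaf stage, grown 7-21 d in greenhouse (~15 h photoperiod, 23-29 °C day), were track-sprayed at 187 L/ha with compound in acetone/DMSO/water/isopropanol/crop oil/Triton X-155 at a high rate plus 1/2× to 1/16× dilutions. Injury scored visually after 14 d versus untreated plants, 0 (none) to 100% (complete kill).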

[2] = test system: Key Broadleaf Weed and Crop Species; experiment: Post-emergent Test II herbicidal activity (Table 15); type: in vivo; conditions: post-emergence, 336 h, 14 d; for pest or weed control at 35 g/ha: 35 g ai/ha; for pest or weed control at 70 g/ha: 70 g ai/ha; for pest or weed control at 140 g/ha: 140 g ai/ha
Summary of the method: as §1

[3] = Cyperus esculentus, yellow nutsedge (Cyperus esculentus), read-out: Visual Growth Reduction (%) 14 Days After Application CYPES
[4] = Echinochloa crus-galli, barnyardgrass (Echinochloa crus-galli), read-out: Visual Growth Reduction (%) 14 Days After Application ECHCG
[5] = Oryza sativa, rice (Oryza sativa), read-out: Visual Growth Reduction (%) 14 Days After Application ORYSA
[6] = Setaria faberi, giant foxtail (Setaria faberi), read-out: Visual Growth Reduction (%) 14 Days After Application SETFA
[7] = Triticum aestivum, wheat, spring (Triticum aestivum), read-out: Visual Growth Reduction (%) 14 Days After Application TRZAS
[8] = Zea mays, maize, corn (Zea mays), read-out: Visual Growth Reduction (%) 14 Days After Application ZEAMX
[9] = Abutilon theophrasti, velvetleaf (Abutilon theophrasti), read-out: Visual Growth Reduction (%) 14 Days After Application, ABUTH
[10] = Amaranthus retroflexus, redroot pigweed (Amaranthus retroflexus), read-out: Visual Growth Reduction (%) 14 Days After Application, AMARE
[11] = Brassica napus, oilseed rape, canola (Brassica napus), read-out: Visual Growth Reduction (%) 14 Days After Application, BRSNN
[12] = Chenopodium album, lambsquarters (Chenopodium album), read-out: Visual Growth Reduction (%) 14 Days After Application, CHEAL
[13] = Euphorbia heterophylla, wild poinsettia (Euphorbia heterophylla), read-out: Visual Growth Reduction (%) 14 Days After Application, EPHHL
[14] = Helianthus annuus, sunflower (Helianthus annuus), read-out: Visual Growth Reduction (%) 14 Days After Application, HELAN

Row | Compound | pest or weed control at 35 g/ha [1, 3] [%] | pest or weed control at 70 g/ha [1, 3] [%] | pest or weed control at 140 g/ha [1, 3] [%] | pest or weed control at 140 g/ha [1, 4] [%] | pest or weed control at 35 g/ha [1, 5] [%] | pest or weed control at 70 g/ha [1, 5] [%] | pest or weed control at 140 g/ha [1, 5] [%] | pest or weed control at 140 g/ha [1, 6] [%] | pest or weed control at 35 g/ha [1, 7] [%] | pest or weed control at 70 g/ha [1, 7] [%] | pest or weed control at 140 g/ha [1, 7] [%] | pest or weed control at 35 g/ha [1, 8] [%] | pest or weed control at 70 g/ha [1, 8] [%] | pest or weed control at 140 g/ha [1, 8] [%] | pest or weed control at 35 g/ha [2, 9] [%] | pest or weed control at 70 g/ha [2, 9] [%] | pest or weed control at 140 g/ha [2, 9] [%] | pest or weed control at 35 g/ha [2, 11] [%] | pest or weed control at 70 g/ha [2, 11] [%] | pest or weed control at 140 g/ha [2, 11] [%] | further results
1 | COC(=O)c1nc(-c2ccc3cn[nH]c3c2)c(F)c(N)c1Cl [Compound 4.05] | 0 to 29 | 0 to 29 | 0 to 29 | 85 to 94 | 0 to 29 | 0 to 29 | 0 to 29 | 95 to 100 | 0 to 29 | 0 to 29 | 0 to 29 | 0 to 29 | 60 to 74 | 60 to 74 | 0 to 29 | 0 to 29 | 45 to 59 | 0 to 29 | 0 to 29 | 45 to 59 | pest or weed control at 35 g/ha [2, 10]: 0 to 29%; pest or weed control at 70 g/ha [2, 10]: 95 to 100%; pest or weed control at 140 g/ha [2, 10]: 95 to 100%; pest or weed control at 35 g/ha [2, 12]: 85 to 94%; pest or weed control at 70 g/ha [2, 12]: 85 to 94%; pest or weed control at 140 g/ha [2, 12]: 95 to 100%; pest or weed control at 35 g/ha [2, 13]: 60 to 74%; pest or weed control at 70 g/ha [2, 13]: 95 to 100%; pest or weed control at 140 g/ha [2, 13]: 95 to 100%; pest or weed control at 35 g/ha [2, 14]: 60 to 74%; pest or weed control at 70 g/ha [2, 14]: 60 to 74%; pest or weed control at 140 g/ha [2, 14]: 95 to 100%; melting point: 185 to 187 °C
2 | Nc1c(Cl)c(C(=O)O)nc(-c2ccc3ccsc3c2)c1Cl [Compound 3.11] | 0 to 29 | 0 to 29 | 0 to 29 | 0 to 29 | 0 to 29 | 0 to 29 | 0 to 29 | 0 to 29 | 0 to 29 | 0 to 29 | 0 to 29 | 0 to 29 | 0 to 29 | 0 to 29 | 0 to 29 | 0 to 29 | 0 to 29 | 0 to 29 | 0 to 29 | 0 to 29 | pest or weed control at 35 g/ha [1, 4]: 0 to 29%; pest or weed control at 70 g/ha [1, 4]: 0 to 29%; pest or weed control at 35 g/ha [1, 6]: 0 to 29%; pest or weed control at 70 g/ha [1, 6]: 0 to 29%; pest or weed control at 35 g/ha [2, 12]: 85 to 94%; pest or weed control at 70 g/ha [2, 12]: 85 to 94%; pest or weed control at 140 g/ha [2, 12]: 85 to 94%; pest or weed control at 35 g/ha [2, 13]: 0 to 29%; pest or weed control at 70 g/ha [2, 13]: 0 to 29%; pest or weed control at 140 g/ha [2, 13]: 0 to 29%; pest or weed control at 35 g/ha [2, 14]: 85 to 94%; pest or weed control at 70 g/ha [2, 14]: 85 to 94%; pest or weed control at 140 g/ha [2, 14]: 85 to 94%; melting point: 239 °C (dec.)
